± gives the expanded uncertainty stated by the source.
Experiments:
[1] = Liquid, Ebulliometric method (Recirculating still)
[2] = Boiling temperature at pressure P; conditions: Liquid, Ebulliometric method (Recirculating still)

SMILES	vapor or sublimation pressure ([1]; 403.4 K) [kPa]	vapor or sublimation pressure ([1]; 405.8 K) [kPa]	vapor or sublimation pressure ([1]; 408.4 K) [kPa]	vapor or sublimation pressure ([1]; 409.8 K) [kPa]	vapor or sublimation pressure ([1]; 413.4 K) [kPa]	Boiling temperature at pressure P ([2]; 71.47 kPa) [°C]	Boiling temperature at pressure P ([2]; 78.36 kPa) [°C]	Boiling temperature at pressure P ([2]; 85.5 kPa) [°C]	Boiling temperature at pressure P ([2]; 89.49 kPa) [°C]	Boiling temperature at pressure P ([2]; 102 kPa) [°C]	vapor or sublimation pressure ([1]; 367.9 K) [kPa]	vapor or sublimation pressure ([1]; 370.6 K) [kPa]	vapor or sublimation pressure ([1]; 373.6 K) [kPa]	vapor or sublimation pressure ([1]; 375.1 K) [kPa]	vapor or sublimation pressure ([1]; 379.3 K) [kPa]	Boiling temperature at pressure P ([2]; 72.04 kPa) [°C]	Boiling temperature at pressure P ([2]; 78.83 kPa) [°C]	Boiling temperature at pressure P ([2]; 85.94 kPa) [°C]	Boiling temperature at pressure P ([2]; 89.82 kPa) [°C]	Boiling temperature at pressure P ([2]; 101.39 kPa) [°C]
OC1CCCC1 [cyclopentanol]	71.5 ± 2.7	77.95 ± 2.8	85.5 ± 2.9	89.69 ± 3.3	101.79 ± 3.4	130.2 ± 1	133.1 ± 1	135.5 ± 1	136.2 ± 1	140.5 ± 1										
COC1CCCC1 [methoxycyclopentane]											71.5 ± 2.4	77.95 ± 2.5	85.5 ± 2.6	89.69 ± 2.9	101.79 ± 2.9	95.1 ± 1	98.1 ± 1	100.2 ± 1	102.2 ± 1	106.1 ± 1
